Test results reported in ChEMBL document CHEMBL1833828, “Efficient conversion of a nonselective norepinephrin reuptake inhibitor into a dual muscarinic antagonist-β₂-agonist for the treatment of chronic obstructive pulmonary disease” (J Med Chem, 2011).
pEC50, pKi: −log10 of the molar value.

Columns and labels:
[1] = biological target: T1, Sodium-dependent noradrenaline transporter (Homo sapiens, UniProt P23975); assay: Binding affinity at human NET receptor at 10 uM
[2] = Lipophilicity, log D of the compound; format: physicochemical; settings: octanol/water
[3] = Metabolic stability in human liver microsomes; format: ADME, Microsome; settings: read-out: Stability
[4] = biological target: T2, Muscarinic acetylcholine receptor M3 (Homo sapiens, UniProt P20309); assay: Displacement of [3H]N-methylscopolamine from human M3 receptor
Target sequence in this assay (P20309 whole entry): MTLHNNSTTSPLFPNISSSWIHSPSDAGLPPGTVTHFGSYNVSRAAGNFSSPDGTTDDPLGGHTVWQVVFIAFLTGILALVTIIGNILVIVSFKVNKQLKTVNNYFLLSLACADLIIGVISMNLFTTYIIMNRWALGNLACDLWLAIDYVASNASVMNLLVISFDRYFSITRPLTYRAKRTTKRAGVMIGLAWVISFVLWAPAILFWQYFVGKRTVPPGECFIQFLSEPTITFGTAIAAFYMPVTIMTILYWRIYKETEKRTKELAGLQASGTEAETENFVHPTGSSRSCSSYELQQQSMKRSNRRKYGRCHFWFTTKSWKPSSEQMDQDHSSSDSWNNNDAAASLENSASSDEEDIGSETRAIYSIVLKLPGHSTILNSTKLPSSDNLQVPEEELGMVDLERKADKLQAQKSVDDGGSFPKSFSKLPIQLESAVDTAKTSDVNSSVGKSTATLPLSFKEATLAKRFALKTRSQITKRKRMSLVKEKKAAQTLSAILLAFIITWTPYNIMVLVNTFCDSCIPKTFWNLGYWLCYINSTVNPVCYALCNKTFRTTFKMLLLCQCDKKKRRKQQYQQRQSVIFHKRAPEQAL

[5] = biological target: T1, Sodium-dependent noradrenaline transporter; assay: Displacement of [3H]nisoxetine from human NET receptor
[6] = biological target: T3, Beta-2 adrenergic receptor (Homo sapiens, UniProt P07550); assay: Agonist activity at human cloned beta-2 adrenergic receptor expressed in CHO cells after compound wash-out relative to unwashed cells; format: functional, cell-based
Target sequence in this assay (P07550 whole entry, looked up): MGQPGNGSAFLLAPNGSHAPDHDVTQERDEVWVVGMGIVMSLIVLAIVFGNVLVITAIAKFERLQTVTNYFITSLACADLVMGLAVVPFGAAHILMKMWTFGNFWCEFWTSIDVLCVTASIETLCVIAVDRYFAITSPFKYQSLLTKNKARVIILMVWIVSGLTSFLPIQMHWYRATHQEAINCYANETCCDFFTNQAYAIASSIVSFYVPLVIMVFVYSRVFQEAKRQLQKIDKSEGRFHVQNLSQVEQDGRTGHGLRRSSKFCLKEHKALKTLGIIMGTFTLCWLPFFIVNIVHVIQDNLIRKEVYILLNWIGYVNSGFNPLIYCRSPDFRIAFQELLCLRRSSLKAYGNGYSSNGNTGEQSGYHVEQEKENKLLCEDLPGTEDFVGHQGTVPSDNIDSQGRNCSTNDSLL

[7] = Permeability across human Caco2 cells; format: ADME, cell-based; settings: Caco-2, read-out: permeability
[8] = Bronchodilatory action against electrical field-stimulated constriction in guinea pig trachea assessed as time taken for the muscle tone at EC70 to recover by 50% of inhibition induced in the presence of beta-2 adrenergic receptor antagonist propranolol; format: functional, Cavia porcellus
[9] = species on record: Cavia porcellus; assay: Bronchodilatory action in guinea pig trachea assessed as inhibition of electrical field-stimulated acetylcholine release; format: functional
[10] = biological target: Beta-1 adrenergic receptor (Homo sapiens, UniProt P08588); assay: Agonist activity at beta-1 adrenergic receptor; format: functional
[11] = Bronchodilatory action against electrical field-stimulated constriction in guinea pig trachea assessed as time taken for the muscle tone at EC70 to recover by 50% of inhibition induced; format: functional, Cavia porcellus
[12] = Bronchodilatory action in guinea pig trachea assessed as inhibition of electrical field-stimulated acetylcholine release in the presence of beta-2 adrenergic receptor antagonist propranolol; format: functional, tissue-based, Cavia porcellus
[13] = biological target: T2, Muscarinic acetylcholine receptor M3; assay: Antagonist activity at human cloned M3 receptor assessed as time taken to reach 50% of total [3H]NMS for solvent treated membranes by dilution-offset method; format: functional
Target sequence in this assay (P20309 whole entry, looked up): as the sequence (P20309 whole entry) above

[14] = biological target: T3, Beta-2 adrenergic receptor; assay: Agonist activity at human beta-2 adrenergic receptor expressed in CHO cells assessed as induction of intracellular cAMP production; format: functional, cell-based
Target sequence in this assay (P07550 whole entry): as the sequence (P07550 whole entry, looked up) above

T1 sequence (P23975 whole entry): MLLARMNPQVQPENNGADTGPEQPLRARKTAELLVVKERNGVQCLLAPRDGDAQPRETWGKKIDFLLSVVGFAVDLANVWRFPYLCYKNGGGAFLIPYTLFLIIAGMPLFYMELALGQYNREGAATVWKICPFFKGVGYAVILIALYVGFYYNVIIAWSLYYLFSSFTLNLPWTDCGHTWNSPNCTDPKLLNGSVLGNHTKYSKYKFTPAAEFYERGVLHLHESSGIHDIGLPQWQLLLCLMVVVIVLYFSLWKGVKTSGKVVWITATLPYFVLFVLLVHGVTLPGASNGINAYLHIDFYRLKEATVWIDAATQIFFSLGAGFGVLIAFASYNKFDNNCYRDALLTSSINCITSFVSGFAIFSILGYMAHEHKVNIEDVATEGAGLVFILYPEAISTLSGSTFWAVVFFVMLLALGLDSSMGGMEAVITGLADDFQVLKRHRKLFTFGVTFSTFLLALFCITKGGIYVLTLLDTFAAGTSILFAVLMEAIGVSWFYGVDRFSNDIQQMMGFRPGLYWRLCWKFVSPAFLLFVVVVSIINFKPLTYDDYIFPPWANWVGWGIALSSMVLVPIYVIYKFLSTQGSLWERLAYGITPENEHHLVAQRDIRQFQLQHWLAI
Beta-1 adrenergic receptor, sequence (P08588 whole entry): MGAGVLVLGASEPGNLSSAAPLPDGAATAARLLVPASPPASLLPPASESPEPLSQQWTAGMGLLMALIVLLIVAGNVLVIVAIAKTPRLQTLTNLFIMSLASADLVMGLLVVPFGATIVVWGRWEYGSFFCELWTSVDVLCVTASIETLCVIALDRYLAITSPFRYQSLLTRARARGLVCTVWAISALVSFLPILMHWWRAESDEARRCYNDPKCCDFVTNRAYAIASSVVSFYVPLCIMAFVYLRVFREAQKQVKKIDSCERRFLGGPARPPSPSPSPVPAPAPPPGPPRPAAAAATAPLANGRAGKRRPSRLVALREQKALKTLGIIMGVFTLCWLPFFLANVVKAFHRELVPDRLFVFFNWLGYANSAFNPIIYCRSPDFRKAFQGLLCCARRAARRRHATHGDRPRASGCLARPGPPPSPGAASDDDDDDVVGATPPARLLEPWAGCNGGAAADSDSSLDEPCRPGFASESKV

SMILES	logD [2]	microsomal CLint [3]	pKi [4]	pKi [5]	Activity [1]	fold change (FC) [6]	Papp [7]	Time [8]	pEC50 [9]	pEC50 [10]	Time [11]	pEC50 [12]	TIME [13]	pEC50 [14]
Cc1ccc(O)c([C@H](CCN(C(C)C)C(C)C)c2ccccc2)c1 [TOLTERODINE]	1.8	< 8 µL/min/mg			15%									
Fc1cccc(F)c1-n1nc(OC2CCNCC2)c2ccccc21	1.4	< 8 µL/min/mg	7.31	8.17										
O=c1ccc2c([C@@H](O)CNCCCCCCCCCN3CCC(Oc4nn(-c5c(O)cccc5F)c5c4CCCC5)CC3)ccc(O)c2[nH]1	2.4	25 µL/min/mg	8.66			1.5	< 1 ×10⁻⁶ cm/s	>16 h	7.55	< 5.00	>16 h	7.57	< 0.267 h	7.85

Second part, led by results:

logD [2]	microsomal CLint [3]	pKi [4]	pKi [5]	SMILES	Activity [1]	fold change (FC) [6]	Papp [7]	Time [8]	pEC50 [9]	pEC50 [10]	Time [11]	pEC50 [12]	TIME [13]	pEC50 [14]
0.6	< 8 µL/min/mg	8.00		Oc1cccc(F)c1-n1nc(OC2CCNCC2)c2ccccc21										
0.3	< 8 µL/min/mg	8.60	5.54	Oc1cccc(F)c1-n1nc(OC2CCNCC2)c2c1CCCC2										
